# Square brackets hold non-standard residues; d marks the D form. Peptide text beside a SMILES is read from it. Orn = NCCC[C@H](N)C(=O)O; βAla = NCCC(=O)O
# Key:
# [1] = test system: 5 SWI/SNF components; assay: ELISA-based peptide binding assay, summary for all five proteins; details: biotin-conjugated peptide, same peptide concentrations
# Experimental: Fig. 3 Effects of VGN50 on KSHV gene transcription and VGN50 binding with SWI/SNF components. a KSHV qRT-PCR array analysis was used to study effects of VGN50 on KSHV gene transcription in a genome-wide manner. Uninduced (−; no doxycycline added) or dox-induced (+; 1 μg/ml) cells were treated with VGN50 or the mutant peptide (Mut-P) at a concentration of 24 μM. Samples were collected at 24 h post-treatment. Expression in uninduced cells was set as 1 for each viral gene and expression shown as fold activation relative to no-Dox samples. Selected cellular genes were also included in the PCR array for comparison. 18S ribosomal RNA was used as an internal control. b KSHV protein expression. […] Peptide binding measured as OD values at 450 nm are shown. […]
# To confirm the basis of the VGN50 action, the biochemical interactions between VGN50 and SWI/SNF proteins (i.e., putative VGN50 target molecules), were examined by ELISA-based binding assays using purified five individual SWI/SNF components prepared from baculovirus-infected Sf9 cells (Fig. 3d). Increasing concentrations of biotin-conjugated VGN50 or Mut-P were incubated in an ELISA plate coated with each SWI/SNF component, and the bound peptides were detected by HRP-streptavidin (Fig. 3e). […]
# [2] = test system: MYC expression in BC-1; assay: MYC qRT-PCR; assay type: cell-based, human; details: BC-1, 24 μM, 24 h
# Experimental: (§1) As a next step, we sought to identify the cellular pathways that are impacted by VGN50. For this, RNA-seq analysis was conducted on total RNA isolated from cells harvested after 24 h of incubation with VGN50. Mutant peptide was used as a comparison to identify differentially regulated genes by VGN50 (Fig. 4a). […] Furthermore, we confirmed the result by RT-qPCR that the expression of MYC itself was decreased in both BCBL-1 and BC-1 cells after treatment with VGN50, but not mutant peptide (Fig. 4c).
# (§2) Fig. 4 VGN50 target identification with RNA-sequencing. a Total RNA-sequencing. BCBL-1 cells were treated with either VGN50 or mutant peptide for 24 h (24 μM, n = 3). Untreated cells were used as a negative control. RNA-sequencing datasets from VGN50-peptide-treated samples were compared with that from mutant-peptide-treated samples, and differentially regulated genes were depicted as a volcano plot (left panel). b Gene Set Enrichment Analyses (GSEA). […] Peptide-treated samples were used for qRT-PCR analysis in duplicate and confirmed MYC down-regulation. (VGN50, 24 μM, 24 h post treatment) d Direct target identification with SLAM-seq. The experimental scheme is shown in the upper section of the panel. VGN50 or mutant peptide (24 μM final concentration) were added to BC-1 or BCBL-1 cells 30 mins prior to incubation with 4sU, and RNA was labeled for 1 h in the presence of each peptide. The C/T converted RNA-species were compared with mock-treated samples and depicted as scatter plots. Each treatment was performed in duplicate and nascent transcripts with p-values <0.05 are indicated as red dots. e Integrative Genomics Viewer (IGV). Both non-T/C converted and converted sequence reads were visualized with the IGV, and a snapshot of the MYC 3′-UTR region is presented. […] The strategy of gene selection for CSAN is described on the left-hand side of the panel. […] The number of common transcriptional regulators are shown in the Venn diagram and selected transcription and co-regulatory protein names are also included. The complete list of gene names is presented in Supplementary Fig. 3.
# [3] = test system: MYC expression in BCBL-1; assay: MYC qRT-PCR; assay type: cell-based, human; details: BCBL-1, 24 μM, 24 h
# Experimental: as §1, §2
smiles,measurement,setting,value
CC(C)C[C@H](NC(=O)CCNC(=O)[C@H](CCCNC(=N)N)NC(=O)[C@H](CCCNC(=N)N)NC(=O)[C@H](CCCNC(=N)N)NC(=O)[C@H](CCCN)NC(=O)[C@H](CCCNC(=N)N)NC(=O)[C@H](CCCNC(=N)N)NC(=O)[C@H](CCCCN)NC(=O)[C@H](CCCCN)NC(=O)[C@H](N)CCCNC(=N)N)C(=O)N[C@@H](CO)C(=O)N[C@@H](CO)C(=O)N[C@@H](C)C(=O)N[C@@H](C)C(=O)N[C@@H](C)C(=O)NCC(=O)N[C@@H](CC(C)C)C(=O)N[C@@H](Cc1ccc(O)cc1)C(=O)N[C@@H](CCC(N)=O)C(=O)N[C@@H](CC(C)C)C(=O)N[C@@H](CC(=O)O)C(=O)N[C@H](C(=O)O)[C@@H](C)O [Mt-P] (H-[dR]KKRR[Orn]RRR[βAla]LSSAAAGLYQLDT-OH; N-terminus and C-terminus assumed),Binding to SWI/SNF components compared with VGN50,[1],did not bind SWI/SNF components as much as VGN50
same,C-myc 2^-(DCT),[2]; replicate 1,9.403e-5
same,C-myc 2^-(DCT),[2]; replicate 2,9.337e-5
same,C-myc 2^-(DCT),[3]; replicate 1,9.038e-5
same,C-myc 2^-(DCT),[3]; replicate 2,8.988e-5
